pIC50: −log10 of the molar value. Bounds are passed on as bounds.

The target of this assay is T1, Purified ERAP1 (37-941)-10His (ERAP1) (Homo sapiens, UniProt Q9NZ08).
T1 construct: Purified ERAP1 (37-941)-10His (ERAP1)
T1 sequence (Q9NZ08 37-941): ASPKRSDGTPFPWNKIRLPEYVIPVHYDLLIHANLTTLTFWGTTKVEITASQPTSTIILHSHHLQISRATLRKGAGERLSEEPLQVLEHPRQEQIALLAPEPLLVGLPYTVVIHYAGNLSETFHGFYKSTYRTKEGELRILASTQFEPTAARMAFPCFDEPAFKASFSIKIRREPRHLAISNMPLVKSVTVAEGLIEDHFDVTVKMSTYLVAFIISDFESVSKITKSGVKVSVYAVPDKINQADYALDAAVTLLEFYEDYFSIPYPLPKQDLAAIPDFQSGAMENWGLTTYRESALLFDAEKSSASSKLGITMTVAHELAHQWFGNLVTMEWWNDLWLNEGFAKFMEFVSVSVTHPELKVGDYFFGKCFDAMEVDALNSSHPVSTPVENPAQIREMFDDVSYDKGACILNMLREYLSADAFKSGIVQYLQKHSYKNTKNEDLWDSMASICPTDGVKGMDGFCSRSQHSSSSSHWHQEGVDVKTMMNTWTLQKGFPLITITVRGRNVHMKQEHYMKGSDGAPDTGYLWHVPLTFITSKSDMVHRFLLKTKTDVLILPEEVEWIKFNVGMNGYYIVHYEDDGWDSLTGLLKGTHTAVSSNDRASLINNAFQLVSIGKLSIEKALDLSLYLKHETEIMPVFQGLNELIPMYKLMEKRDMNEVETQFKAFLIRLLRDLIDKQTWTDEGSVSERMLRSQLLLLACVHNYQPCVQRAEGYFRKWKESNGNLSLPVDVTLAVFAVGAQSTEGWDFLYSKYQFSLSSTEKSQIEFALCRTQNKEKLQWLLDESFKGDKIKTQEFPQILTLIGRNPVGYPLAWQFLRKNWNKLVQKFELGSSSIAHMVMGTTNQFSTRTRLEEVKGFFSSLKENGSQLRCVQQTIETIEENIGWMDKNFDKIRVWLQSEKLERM
In words: ERAP1 mediated hydrolysis of an amide substrate (10-mer inhibition assay), biochemical system. The note with it: 10-mer substrate, 23° C., 1 h, excitation 279 nm / emission 355 nm; read-out: IC50 vs Decapeptide WRVYEKC(Dnp)ALK-acid (where Dnp is Dinitrophenyl maleimide) (10-mer). As for the experimental part:
However, as ERAP1 hydrolyses the N-terminal amide bond and tryptophan is released this internal quenching is lost and the reaction is monitored by the increase in tryptophan fluorescence over the course of the assay. For the purposes of this application this assay is referred to as the “10mer inhibition assay” and compound potencies are calculated and expressed as IC50 as would be familiar to a person skilled in the art.
Biological Assay 1: ERAP1 Mediated Hydrolysis of an Amide Substrate Measured in a Biochemical System
Decapeptide WRVYEKC(Dnp)ALK-acid (where Dnp is Dinitrophenyl maleimide) (10-mer) L-Leucine 7-amido-4-methylcoumarin (L-AMC)
12.5 μL ERAP1 enzyme in 1×AB was combined with 250 nL test compound in DMSO. […] For detection, plates were read at excitation 365 nm and emission 442 nm (L-AMC) or excitation 279 nm and emission 355 nm (10-mer).
Take `COc1ccc(C(=O)O)cc1S(=O)(=O)Nc1cc(C(F)(F)F)ccc1N1CCCCC1` [Example 54, 4-methoxy-3-(N-(2-(piperidin-1-yl)-5-(trifluoromethyl)phenyl)sulfamoyl)benzoic acid]: the negative logarithm of the IC50 (pIC50) (commonly −log10 of the IC50, conventionally taken in molar units) was more than 6.30.

For the compound `CC(C)c1ccc(C(=O)O)cc1S(=O)(=O)Nc1cc(C(F)(F)F)ccc1N1CCCCCC1` [Example 55, 3-(N-(2-(azepan-1-yl)-5-(trifluoromethyl)phenyl)sulfamoyl)-4-isopropylbenzoic acid], the pIC50 was more than 6.30.

`O=C(O)c1cc(F)cc(S(=O)(=O)Nc2cc(C(F)(F)F)ccc2N2CCCCC2)c1` [Example 59, 3-fluoro-5-(N-(2-(piperidin-1-yl)-5-(trifluoromethyl)phenyl)sulfamoyl)benzoic acid]: the negative logarithm of the IC50 (pIC50) is more than 6.30.

For the compound `CCc1ccc(C(=O)O)cc1S(=O)(=O)Nc1cc(C(F)(F)F)ccc1N1CCCCCC1` [Example 61, 3-(N-(2-(azepan-1-yl)-5-(trifluoromethyl)phenyl)sulfamoyl)-4-ethylbenzoic acid], the pIC50 was less than 5.30.

`Cc1ccc(C(=O)O)cc1S(=O)(=O)Nc1cc(C(F)(F)F)ccc1N1CCCCCC1` [Example 62, 3-(N-(2-(azepan-1-yl)-5-(trifluoromethyl)phenyl)sulfamoyl)-4-methylbenzoic acid]: the pIC50 is more than 6.30.

On to `COc1ccc(-c2nn[nH]n2)cc1NS(=O)(=O)c1cc(C(F)(F)F)ccc1N1CCCCC1` [Example 63, N-(2-methoxy-5-(tetrazol-5-yl)phenyl)-2-(piperidin-1-yl)-5-(trifluoromethyl) benzenesulfonamide], for which the pIC50 was more than 5.30.

As to `COc1ccc(C(=O)O)cc1S(=O)(=O)Nc1ccc(Cl)cc1N1CCCCC1` [Example 65, 3-(N-(4-chloro-2-(piperidin-1-yl)phenyl)sulfamoyl)-4-methoxybenzoic acid], the pIC50 is more than 6.30.

Take `COc1ccc(C(=O)O)cc1S(=O)(=O)Nc1cc(Cl)ccc1N1CCCCC1` [Example 66, 3-(N-(5-chloro-2-(piperidin-1-yl)phenyl)sulfamoyl)-4-methoxybenzoic acid]: the pIC50 is more than 6.30.

Take `Cc1ccc(C(=O)O)cc1S(=O)(=O)Nc1cc(C(F)(F)F)ccc1N1CCCCC1` [Example 67, 4-methyl-3-(N-(2-(piperidin-1-yl)-5-(trifluoromethyl)phenyl)sulfamoyl)benzoic acid]: the pIC50 was more than 6.30.

`COc1ccc(C(=O)O)cc1S(=O)(=O)Nc1cc(C(F)(F)F)ccc1N1CCCCCC1` [Example 68, 3-(N-(2-(azepan-1-yl)-5-(trifluoromethyl)phenyl)sulfamoyl)-4-methoxybenzoic acid]: the negative-log IC50 (pIC50) is more than 6.30.

In the case of `Cc1ccc(S(=O)(=O)Nc2cc(C(F)(F)F)ccc2N2CCCCC2)cc1C(=O)O` [Example 70, 2-methyl-5-(N-(2-(piperidin-1-yl)-5-(trifluoromethyl)phenyl)sulfamoyl)benzoic acid], the pIC50 is more than 5.30.

Take `COc1ccc(C(=O)O)cc1S(=O)(=O)Nc1cc(C(F)(F)F)ccc1N1CCOCC1` [Example 72, 4-methoxy-3-(N-(2-morpholino-5-(trifluoromethyl)phenyl)sulfamoyl)benzoic acid]: the negative-log IC50 (pIC50) is more than 6.30.

As to `COc1ccc(C(=O)O)cc1S(=O)(=O)Nc1cc(C(F)(F)F)ccc1N1CCCC1` [Example 75, 4-methoxy-3-(N-(2-(pyrrolidin-1-yl)-5-(trifluoromethyl)phenyl)sulfamoyl)benzoic acid], the pIC50 was more than 5.30.

`COc1ccc(C(=O)O)cc1S(=O)(=O)Nc1cc(C(F)(F)F)ccc1N(C)C` [Example 77, 3-(N-(2-(dimethylamino)-5-(trifluoromethyl)phenyl)sulfamoyl)-4-methoxybenzoic acid]: the pIC50 was more than 5.30.

Take `O=C(O)c1cc(Cl)cc(S(=O)(=O)Nc2cc(C(F)(F)F)ccc2N2CCCCC2)c1` [Example 80, 3-chloro-5-(N-(2-(piperidin-1-yl)-5-(trifluoromethyl)phenyl)sulfamoyl)benzoic acid]: the pIC50 is more than 5.30.

`O=C(O)c1cc(S(=O)(=O)Nc2cc(C(F)(F)F)ccc2N2CCCCC2)ccc1Cl` [Example 83, 2-chloro-5-(N-(2-(piperidin-1-yl)-5-(trifluoromethyl)phenyl)sulfamoyl)benzoic acid]: the negative logarithm of the IC50 (pIC50) was more than 5.30.

In the case of `COc1ccc(C(=O)O)cc1S(=O)(=O)Nc1cc(C(F)(F)F)ccc1N1CCC(C)CC1` [Example 84, 4-methoxy-3-(N-(2-(4-methylpiperidin-1-yl)-5-(trifluoromethyl)phenyl)sulfamoyl)benzoic acid], the pIC50 was more than 5.30.

Take `O=C(O)c1ccc(Cl)c(S(=O)(=O)Nc2cc(C(F)(F)F)ccc2N2CCCCCC2)c1` [Example 86, 3-(N-(2-(azepan-1-yl)-5-(trifluoromethyl)phenyl)sulfamoyl)-4-chlorobenzoic acid]: the pIC50 was more than 6.30.

For `O=C(O)c1ccc(O)c(S(=O)(=O)Nc2cc(C(F)(F)F)ccc2N2CCCCC2)c1` [Example 161, 4-hydroxy-3-(N-(2-(piperidin-1-yl)-5-(trifluoromethyl)phenyl)sulfamoyl)benzoic acid], the negative-log IC50 (pIC50) is more than 6.30.

`COc1ccc(-c2nn[nH]n2)cc1S(=O)(=O)Nc1cc(C(F)(F)F)ccc1N1CCCCC1` [Example 171, 2-methoxy-N-(2-(piperidin-1-yl)-5-(trifluoromethyl)phenyl)-5-(tetrazol-5-yl)benzenesulfonamide]: the pIC50 is more than 5.30.

With `COc1ccc(C(=O)O)cc1S(=O)(=O)Nc1cc(C(F)(F)F)ccc1N1CCCC(O)C1` (stereo not shown) [Example 177, 3-(N-(2-(3-hydroxypiperidin-1-yl)-5-(trifluoromethyl)phenyl)sulfamoyl)-4-methoxybenzoic acid], the pIC50 is more than 6.30.

In the case of `COc1ccc(C(=O)O)cc1S(=O)(=O)Nc1cc(C(F)(F)F)ccc1N1CC[C@H](O)C1` [Example 178, (S)-3-(N-(2-(3-hydroxypyrrolidin-1-yl)-5-(trifluoromethyl)phenyl)sulfamoyl)-4-methoxybenzoic acid], the negative-log IC50 (pIC50) was more than 5.30.

Consider `COc1ccc(C(=O)O)cc1S(=O)(=O)Nc1cc(C(F)(F)F)ccc1N1CCCC(OC)C1` (stereo not shown) [Example 179, 4-methoxy-3-(N-(2-(3-methoxypiperidin-1-yl)-5-(trifluoromethyl)phenyl)sulfamoyl)benzoic acid], for which the negative logarithm of the IC50 (pIC50) is more than 6.30.

In the case of `CCOC1CCN(c2ccc(C(F)(F)F)cc2NS(=O)(=O)c2cc(C(=O)O)ccc2OC)CC1` [Example 180, 3-(N-(2-(4-ethoxypiperidin-1-yl)-5-(trifluoromethyl)phenyl)sulfamoyl)-4-methoxybenzoic acid], the negative logarithm of the IC50 (pIC50) was more than 6.30.

Take `COc1ccc(C(=O)O)cc1S(=O)(=O)Nc1cc(C(F)(F)F)ccc1N1CCC(OC)CC1` [Example 181, 4-methoxy-3-(N-(2-(4-methoxypiperidin-1-yl)-5-(trifluoromethyl)phenyl)sulfamoyl)benzoic acid]: the pIC50 is more than 6.30.

With `COc1ccc(C(=O)O)cc1S(=O)(=O)Nc1cc(C#N)ccc1N1CCCCC1` [Example 182, 3-(N-(5-cyano-2-(piperidin-1-yl)phenyl)sulfamoyl)-4-methoxybenzoic acid], the negative-log IC50 (pIC50) was more than 6.30.

Turning to `CCc1ccc(C(=O)O)cc1S(=O)(=O)Nc1cc(C(F)(F)F)ccc1N1CC(O)C1` [Example 183, 4-ethyl-3-(N-(2-(3-hydroxyazetidin-1-yl)-5-(trifluoromethyl)phenyl)sulfamoyl)benzoic acid], the negative-log IC50 (pIC50) was less than 5.30.

In the case of `COc1ccc(C(=O)O)cc1S(=O)(=O)Nc1cc(C(F)(F)F)cc(F)c1N1CCCCC1` [Example 184, 3-(N-(3-fluoro-2-(piperidin-1-yl)-5-(trifluoromethyl)phenyl)sulfamoyl)-4-methoxybenzoic acid], the negative-log IC50 (pIC50) was more than 6.30.

Take `COc1ccc(C(=O)O)cc1S(=O)(=O)Nc1cc(C(F)(F)F)ccc1N1CCC(O)(C2CC2)CC1` [Example 185, 3-(N-(2-(4-cyclopropyl-4-hydroxypiperidin-1-yl)-5-(trifluoromethyl)phenyl)sulfamoyl)-4-methoxybenzoic acid]: the pIC50 is more than 6.30.

For `COc1ccc(C(=O)O)cc1S(=O)(=O)Nc1cc(C(F)(F)F)ccc1N1CCC2(CCO2)CC1` [Example 186, 3-(N-(2-(1-oxa-7-azaspiro[3.5]nonan-7-yl)-5-(trifluoromethyl)phenyl)sulfamoyl)-4-methoxybenzoic acid], the pIC50 is more than 6.30.

Turning to `COc1ccc(C(=O)O)cc1S(=O)(=O)Nc1cc(C(F)(F)F)ccc1N1CCC(OC(C)C)CC1` [Example 187, 3-(N-(2-(4-isopropoxypiperidin-1-yl)-5-(trifluoromethyl)phenyl)sulfamoyl)-4-methoxybenzoic acid], the pIC50 was more than 5.30.

With `COc1ccc(C(=O)O)cc1S(=O)(=O)Nc1cc(C(F)(F)F)ccc1N1CC[C@@H](O)C1` [Example 188, (R)-3-(N-(2-(3-hydroxypyrrolidin-1-yl)-5-(trifluoromethyl)phenyl)sulfamoyl)-4-methoxybenzoic acid], the negative logarithm of the IC50 (pIC50) is more than 5.30.

On to `CCC1(O)CN(c2ccc(C(F)(F)F)cc2NS(=O)(=O)c2cc(C(=O)O)ccc2OC)C1` [Example 189, 3-(N-(2-(3-ethyl-3-hydroxyazetidin-1-yl)-5-(trifluoromethyl)phenyl)sulfamoyl)-4-methoxybenzoic acid], for which the negative-log IC50 (pIC50) was less than 5.30.

For the compound `O=C(O)c1ccc(C(F)(F)F)c(S(=O)(=O)Nc2cc(C(F)(F)F)ccc2N2CCCCC2)c1` [Example 200, 3-(N-(2-(piperidin-1-yl)-5-(trifluoromethyl)phenyl)sulfamoyl)-4-(trifluoromethyl)benzoic acid], the pIC50 is more than 5.30.

The record behind these values is patent publication US12485169B2, “Compounds” (GREY WOLF THERAPEUTICS LIMITED, priority 2018, dated 2025).
